Results as given in US20120122870A1, “Treatment Of Ischemia-Reperfusion Injury” (MUSC FOUNDATION FOR RESEARCH DEVELOPMENT, priority 2009, published 2012).

How the values were obtained:
recombinant human SK = target: T1, recombinant human SK (Homo sapiens, UniProt Q9NYA1); test: Recombinant human SK activity assay ([3H]sphingosine to [3H]S1P); assay type: biochemical; details: Human SK incubated with 6 μg/mL of compound; percentage of SK activity inhibited
T1 construct: GST (glutathione-S-transferase) (N); made in house; host or cells: bacteria (pGEX bacterial expression vector)
Procedure: SK activity is measured by incubation of the recombinant SK with [^3H]sphingosine and 1 mM ATP under defined conditions, followed by extraction of the assay mixture with chloroform:methanol under basic conditions. […] Radioactivity in aliquots of the aqueous phase is then quantified as a measure of [^3H]S1P formation.
(§1) Human SK was incubated with 6 μg/mL of the indicated compounds, and then assayed for activity as described above. Values in the column labeled “Recombinant SK (% inhibition)” represent the percentage of SK activity that was inhibited. MDA-MB-231 cells were incubated with 20 μg/mL of the indicated compounds and then assayed for endogenous SK activity as indicated above. Values in the column labeled “Cellular S1P (% inhibition)” represent the percentage of S1P production that was inhibited. Additionally, MDA-MB-231 cells were treated with varying concentration of certain compounds and the amount of S1P produced by the cells was determined. Values in the column labeled “Cellular S1P IC50 (μM)” represent the concentration of compound required to inhibit the production of S1P by 50%. ND=not determined.

[1] = tested on: endogenous SK activity in MDA-MB-231 cells; test: Cellular S1P production (endogenous SK activity) in MDA-MB-231 cells; assay type: cell-based; details: Homo sapiens; for inhibition at 20 µg/mL: MDA-MB-231, MDA-MB-231 cells incubated with 20 μg/mL of compound, percentage of S1P production inhibited
Procedure: as §1

T1 sequence (Q9NYA1 whole entry): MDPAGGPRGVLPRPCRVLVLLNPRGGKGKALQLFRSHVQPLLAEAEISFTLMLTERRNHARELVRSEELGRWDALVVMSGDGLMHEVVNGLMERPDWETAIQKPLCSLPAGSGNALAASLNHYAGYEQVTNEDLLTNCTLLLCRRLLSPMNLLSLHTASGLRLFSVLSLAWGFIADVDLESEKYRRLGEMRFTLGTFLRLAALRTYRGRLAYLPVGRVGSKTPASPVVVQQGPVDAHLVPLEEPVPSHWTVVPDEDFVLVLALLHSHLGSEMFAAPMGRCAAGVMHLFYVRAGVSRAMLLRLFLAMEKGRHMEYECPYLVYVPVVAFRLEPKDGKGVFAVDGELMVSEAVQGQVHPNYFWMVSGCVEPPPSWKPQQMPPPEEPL

inhibition at 6 µg/mL (recombinant human SK) [%] | IC50 ([1]; MDA-MB-231 cells, varying concentrations, concentration inhibiting S1P production by 50%) [µM] | Recombinant SK (% inhibition) (recombinant human SK) [%] | Compound | inhibition at 20 µg/mL [1] [%]
38 | – | – | CC(C)NC(=O)C12CC3CC(C1)CC(c1ccc(Cl)cc1)(C3)C2 [A1, 3-(4-Chloro-phenyl)-adamantane-1-carboxylic acid isopropylamide] | 0
44 | – | – | O=C(Nc1ccccc1)C12CC3CC(C1)CC(c1ccc(Cl)cc1)(C3)C2 [A4, 3-(4-Chloro-phenyl)-adamantane-1-carboxylic acid phenylamide] | 14
100 | – | – | O=C(Nc1ccc(O)cc1)C12CC3CC(CC(C3)C1)C2 [A5, Adamantane-1-carboxylic acid (4-hydroxy-phenyl)-amide] | 17
72 | 15 | – | O=C(Nc1ccc(O)cc1)C12CC3CC(C1)CC(c1ccc(Cl)cc1)(C3)C2 [A6, 3-(4-Chloro-phenyl)-adamantane-1-carboxylic acid (4-hydroxy-phenyl)-amide] | 90
100 | – | – | CC(=O)Oc1ccc(NC(=O)C23CC4CC(C2)CC(c2ccc(Cl)cc2)(C4)C3)cc1 [A7, Acetic acid 4-{[3-(4-chloro-phenyl)-adamantane-1-carbonyl]-amino}-phenyl ester] | 96
49 | – | – | O=C(Nc1ccc(O)cc1O)C12CC3CC(C1)CC(c1ccc(Cl)cc1)(C3)C2 [A8, 3-(4-Chloro-phenyl)-adamantane-1-carboxylic acid (2,4-dihydroxy-phenyl)-amide] | 0
84 | – | – | O=C(Nc1cccc(CO)c1)C12CC3CC(C1)CC(c1ccc(Cl)cc1)(C3)C2 [A9, 3-(4-Chloro-phenyl)-adamantane-1-carboxylic acid (3-hydroxymethyl-phenyl)-amide] | 40
3 | – | – | N#CCc1ccc(NC(=O)C23CC4CC(CC(C4)C2)C3)cc1 [A10, Adamantane-1-carboxylic acid (4-cyanomethyl-phenyl)-amide] | 9
17 | – | – | N#CCc1ccc(NC(=O)C23CC4CC(C2)CC(c2ccc(Cl)cc2)(C4)C3)cc1 [A11, 3-(4-Chloro-phenyl)-adamantane-1-carboxylic acid (4-cyanomethyl-phenyl)-amide] | 0
36 | – | – | O=C(NCc1ccccc1)C12CC3CC(C1)CC(c1ccc(Cl)cc1)(C3)C2 [A12, 3-(4-Chloro-phenyl)-adamantane-1-carboxylic acid benzylamide] | 3
78 | – | – | CC(C)(C)c1ccc(CNC(=O)C23CC4CC(C2)CC(c2ccc(Cl)cc2)(C4)C3)cc1 [A13, 3-(4-Chloro-phenyl)-adamantane-1-carboxylic acid 4-tert-butyl-benzylamide] | 0
55 | – | – | CC(NC(=O)C12CC3CC(C1)CC(c1ccc(Cl)cc1)(C3)C2)c1ccc(Br)cc1 (stereo not drawn) [A29, 3-(4-Chloro-phenyl)-adamantane-1-carboxylic acid [1-(4-bromo-phenyl)-ethyl]-amide] | 0
87 | – | – | O=C(NCc1ccc(O)c(O)c1)C12CC3CC(CC(C3)C1)C2 [A35, Adamantane-1-carboxylic acid 3,4-dihydroxy-benzylamide] | 0
24 | – | – | O=C(NCCc1ccccc1)C12CC3CC(C1)CC(c1ccc(Cl)cc1)(C3)C2 [A37, 3-(4-Chloro-phenyl)-adamantane-1-carboxylic acid phenethyl-amide] | 36
5 | – | – | FC(F)(F)Oc1ccc(CNCC23CC4CC(C2)CC(c2ccc(Cl)cc2)(C4)C3)cc1 [A80, [3-(4-Chloro-phenyl)-adamantan-1-ylmethyl]-(4-trifluoromethoxy-benzyl)-amine] | –
67 | – | – | Clc1ccc(C23CC4CC(CC(CNCCc5cccc(Oc6ccccc6)c5)(C4)C2)C3)cc1 [A81, [3-(4-Chloro-phenyl)-adamantan-1-ylmethyl]-[2-(3-phenoxy-phenyl)-ethyl]-amine] | –
75 | – | – | CN1CCC(NCC23CC4CC(C2)CC(c2ccc(Cl)cc2)(C4)C3)CC1 [A82, [3-(4-Chloro-phenyl)-adamantan-1-ylmethyl]-(1-methyl-piperidin-4-yl)-amine] | –
84 | – | – | CC(C)(C)NCCCNCC12CC3CC(C1)CC(c1ccc(Cl)cc1)(C3)C2 [A84, N-tert-Butyl-N′-[3-(4-chloro-phenyl)-adamantan-1-ylmethyl]-propane-1,3-diamine] | –
0 | – | – | Clc1ccc(C23CC4CC(CC(CNCCCN5CCCC5)(C4)C2)C3)cc1 [A85, [3-(4-Chloro-phenyl)-adamantan-1-ylmethyl]-(3-pyrrolidin-1-yl-propyl)-amine] | –
6 | – | – | CN1CCCC1CCNCC12CC3CC(C1)CC(c1ccc(Cl)cc1)(C3)C2 (stereo not drawn) [A86, [3-(4-Chloro-phenyl)-adamantan-1-ylmethyl]-[2-(1-methyl-pyrrolidin-2-yl)-ethyl]-amine] | –
1 | – | – | Clc1ccc(C23CC4CC(CC(CNCc5ccncc5)(C4)C2)C3)cc1 [A88, [3-(4-Chloro-phenyl)-adamantan-1-ylmethyl]-pyridin-4-ylmethyl-amine] | –
70 | – | – | CC(Nc1ccccc1)C12CC3CC(CC(c4ccccc4)(C3)C1)C2 (stereo not drawn) [A93, Phenyl-[1-(3-phenyl-adamantan-1-yl)-ethyl]-amine] | –
38 | – | – | O=C(/C=C/c1ccc(Cl)cc1)C12CC3CC(C1)CC(c1ccc(Cl)cc1)(C3)C2 [A130, 3-(4-Chloro-phenyl)-1-[3-(4-chloro-phenyl)-adamantan-1-yl]-propenone] | –
41 | – | – | N#Cc1ccc(/C=C/C(=O)C23CC4CC(C2)CC(c2ccc(Cl)cc2)(C4)C3)cc1 [A131, 4-{3-[3-(4-Chloro-phenyl)-adamantan-1-yl]-3-oxo-propenyl}-benzonitrile] | –
8 | – | – | O=C(/C=C/c1ccc(O)cc1)C12CC3CC(C1)CC(c1ccc(Cl)cc1)(C3)C2 [A132, 1-[3-(4-Chloro-phenyl)-adamantan-1-yl]-3-(4-hydroxy-phenyl)-propenone] | –
36 | – | – | O=C(/C=C/c1ccc2ccccc2c1)C12CC3CC(C1)CC(c1ccc(Cl)cc1)(C3)C2 [A133, 1-[3-(4-Chloro-phenyl)-adamantan-1-yl]-3-naphthalen-2-yl-propenone] | –
52 | – | – | O=C(/C=C/c1ccc(Cl)nc1)C12CC3CC(C1)CC(c1ccc(Cl)cc1)(C3)C2 [A134, 1-[3-(4-Chloro-phenyl)-adamantan-1-yl]-3-(6-chloro-pyridin-3-yl)-propenone] | –
64 | – | – | O=C(/C=C/c1cnc[nH]1)C12CC3CC(C1)CC(c1ccc(Cl)cc1)(C3)C2 [A135, 1-[3-(4-Chloro-phenyl)-adamantan-1-yl]-3-(1H-imidazol-4-yl)-propenone] | –
– | – | 46 | O=C(NCCCN1CCCC1)c1nc(-c2ccc(Cl)cc2)cs1 [B59, 4-(4-Chloro-phenyl)-thiazole-2-carboxylic acid (3-pyrrrolidin-1-yl-propyl)-amide] | –

Compound | inhibition at 6 µg/mL (recombinant human SK) [%] | IC50 ([1]; MDA-MB-231 cells, varying concentrations, concentration inhibiting S1P production by 50%) [µM] | Recombinant SK (% inhibition) (recombinant human SK) [%] | inhibition at 20 µg/mL [1] [%]
CC(NC1CCN(C)CC1)C12CC3CC(CC(C3)C1)C2 (stereo not drawn) [A104, (1-Adamantan-1-yl-ethyl)-(1-methyl-piperidin-4-yl)-amine] | 0 | – | – | –
